Measurements: patent US9273057B2 (Bristol-Myers Squibb Company, priority 2012, dated 2016)

Molecular target: CK2A1 (CK2α/β) (Homo sapiens, UniProt P68400)
Experiment: CK2 kinase assay, CK2A1 (CK2α/β)
Format: biochemical
Details: Table A; read-out: CK2A1 (CK2α/β) (IC50)

Chain of CK2A1 (CK2α/β) (P68400 whole entry, species assumed): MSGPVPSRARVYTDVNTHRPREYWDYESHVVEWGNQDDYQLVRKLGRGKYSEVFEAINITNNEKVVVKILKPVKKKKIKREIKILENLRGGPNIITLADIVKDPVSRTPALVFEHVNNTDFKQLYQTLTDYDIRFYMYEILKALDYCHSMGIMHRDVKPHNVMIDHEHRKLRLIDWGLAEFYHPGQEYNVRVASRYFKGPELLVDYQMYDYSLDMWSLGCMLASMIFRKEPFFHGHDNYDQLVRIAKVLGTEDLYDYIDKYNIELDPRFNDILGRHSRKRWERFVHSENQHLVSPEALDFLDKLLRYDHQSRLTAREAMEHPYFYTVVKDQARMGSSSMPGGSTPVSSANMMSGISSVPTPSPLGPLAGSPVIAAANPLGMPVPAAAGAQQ
Chain of CK2A1 (CK2α/β) (P67870 whole entry partner, species assumed): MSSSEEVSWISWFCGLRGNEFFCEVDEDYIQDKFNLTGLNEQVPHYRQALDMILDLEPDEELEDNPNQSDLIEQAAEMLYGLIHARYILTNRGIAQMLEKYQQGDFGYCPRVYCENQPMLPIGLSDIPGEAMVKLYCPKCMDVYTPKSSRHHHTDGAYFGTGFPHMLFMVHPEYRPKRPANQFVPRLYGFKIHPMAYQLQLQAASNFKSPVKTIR

| Structure (SMILES) | IC50 [nM] |
| --- | --- |
| N#Cc1cc(Nc2nc(NC3CC3)c3ncc(C#N)n3n2)c(Cl)c(N2CC3(CCN(CC(O)CF)CC3)C2)c1 (racemic) [Example 807, (+/−)-2-((2-chloro-5-cyano-3-(7-(3-fluoro-2-hydroxypropyl)-2,7-diazaspiro[3.5]nonan-2-yl)phenyl)amino)-4-(cyclopropylamino)imidazo[2,1-f][1,2,4]triazine-7-carbonitrile] | 0.73 |
| COC(=O)N[C@H]1CN(c2cc(C#N)cc(Nc3nc(NC4CC4)c4ncc(C#N)n4n3)c2Cl)C[C@@H]1OC [Example 288, methyl ((3S,4S)-1-(2-chloro-5-cyano-3-((7-cyano-4-(cyclopropylamino)imidazo[2,1-f][1,2,4]triazin-2-yl)amino)phenyl)-4-methoxy-3-pyrrolidinyl)carbamate] | 0.91 |
| N#Cc1cc(Nc2nc(NC3CC3)c3ncc(C#N)n3n2)c(Cl)c(C2CCN(C3CCN(C4CC4)CC3)CC2)c1 [Example 213, 2-(2-chloro-5-cyano-3-(1′-cyclopropyl-1,4′-bipiperidin-4-yl)phenylamino)-4-(cyclopropylamino)imidazo[1,2-f][1,2,4]triazine-7-carbonitrile] | 4 |
| N#Cc1cc(Nc2nc(NC3CC3)c3ncc(C#N)n3n2)c(Cl)c(N2C[C@@H](O)[C@H](N3CCOCC3)C2)c1 [Example 307, 2-((2-chloro-5-cyano-3-((3R,4R)-3-hydroxy-4-(4-morpholinyl)-1-pyrrolidinyl)phenyl)amino)-4-(cyclopropylamino)imidazo[2,1-f][1,2,4]triazine-7-carbonitrile] | 0.88 |
| CC1(C(O)c2cc(C#N)cc(Nc3nc(NC4CC4)c4ncc(C#N)n4n3)c2Cl)COC1 (centres unmarked) [Example 657, 2-((2-chloro-5-cyano-3-(hydroxy(3-methyloxetan-3-yl)methyl)phenyl)amino)-4-(cyclopropylamino)imidazo[2,1-f][1,2,4]triazine-7-carbonitrile] | 4.2 |
| N#Cc1cc(CN2CCN(CCO)CC2)c(Cl)c(Nc2nc(NC3CC3)c3ncc(C#N)n3n2)c1 [Example 465, 2-[(2-chloro-5-cyano-3-{[4-(2-hydroxyethyl)piperazin-1-yl]methyl}phenyl)amino]-4-(cyclopropylamino)imidazo[2,1-f][1,2,4]triazine-7-carbonitrile] | 1.66 |
| N#Cc1cc(Nc2nc(NC3CC3)c3ncc(C#N)n3n2)c(Cl)c(C(O)C2CCNCC2)c1 (centres unmarked) [Example 654, 2-((2-chloro-5-cyano-3-(hydroxy(piperidin-4-yl)methyl)phenyl)amino)-4-(cyclopropylamino)imidazo[2,1-f][1,2,4]triazine-7-carbonitrile] | 2.68 |
| COC(=O)NC1CCN(c2cc(C#N)cc(Nc3nc(NC4CC4)c4ncc(C#N)n4n3)c2Cl)CC1(C)C (centres unmarked) [Example 286, methyl (1-(2-chloro-5-cyano-3-((7-cyano-4-(cyclopropylamino)imidazo[2,1-f][1,2,4]triazin-2-yl)amino)phenyl)-3,3-dimethyl-4-piperidinyl)carbamate] | 4.4 |
| N#Cc1cc(Nc2nc(NC3CC3)c3ncc(C#N)n3n2)c(Cl)c(N2CCN(C(=O)CC3CCOCC3)CC2)c1 [Example 95, 2-((2-chloro-5-cyano-3-(4-(tetrahydro-2H-pyran-4-ylacetyl)-1-piperazinyl)phenyl)amino)-4-(cyclopropylamino) imidazo[2,1-f][1,2,4] triazine-7-carbonitrile] | 0.92 |
| N#Cc1cc(Nc2nc(NC3CC3)c3ncc(C#N)n3n2)c(Cl)c(N2CCN3C[C@H](O)C[C@@H]3C2)c1 (racemic) [Example 435, (+/−)-2-((2-chloro-5-cyano-3-((7R,8aR)-7-hydroxyhexahydropyrrolo[1,2-a]pyrazin-2(1H)-yl)phenyl)amino)-4-(cyclopropylamino)imidazo[2,1-f][1,2,4]triazine-7-carbonitrile] | 1.13 |
| CCNc1nc(Nc2cc(C#N)cc(N3CCN(C4(CCO)COC4)CC3)c2Cl)nn2c(C#N)cnc12 [Example 543, 2-((2-chloro-5-cyano-3-(4-(3-(2-hydroxyethyl)oxetan-3-yl)piperazin-1-yl)phenyl)amino)-4-(ethylamino)imidazo[2,1-f][1,2,4]triazine-7-carbonitrile] | 1.1 |
